Converted amounts (≈) assume the structure as drawn. Values belong to the compound of their own block, whether it stands above or below them.
Tests used:
[1] = Activation of rabbit psoas fast skeletal Myofibril; format: tissue-based, Oryctolagus cuniculus, Muscle tissue
[2] = Half life in mouse liver microsomes; format: ADME, Microsome
[3] = Aqueous solubility of compound at pH 7.4; format: physicochemical; settings: buffer
[4] = Toxicity in Spinal muscular atrophy mouse assessed as survival rate at day 112 (reference value: 100 %); settings: in vivo
[5] = AUClast in Spinal muscular atrophy mouse plasma at 10 mg/kg, po by LC/MS-MS analysis; format: ADME, organism-based; parameters: dose 10 mg/kg, route po
[6] = AUClast in Spinal muscular atrophy mouse brain at 10 mg/kg, po by LC/MS-MS analysis; format: ADME, organism-based; parameters: dose 10 mg/kg, route po
[7] = Toxicity in Spinal muscular atrophy mouse assessed as survival rate at 10 mg/kg, ip administered daily; format: organism-based; settings: in vivo
[8] = Increase in SMN2 expression in human HEK293 cells assessed as luciferase reporter activity incubated for 24 hrs
m7GpppX diphosphatase = molecular target: T1, m7GpppX diphosphatase (Homo sapiens, UniProt Q96C86); test: Inhibition of human DcpS
T1 sequence (Q96C86 whole entry): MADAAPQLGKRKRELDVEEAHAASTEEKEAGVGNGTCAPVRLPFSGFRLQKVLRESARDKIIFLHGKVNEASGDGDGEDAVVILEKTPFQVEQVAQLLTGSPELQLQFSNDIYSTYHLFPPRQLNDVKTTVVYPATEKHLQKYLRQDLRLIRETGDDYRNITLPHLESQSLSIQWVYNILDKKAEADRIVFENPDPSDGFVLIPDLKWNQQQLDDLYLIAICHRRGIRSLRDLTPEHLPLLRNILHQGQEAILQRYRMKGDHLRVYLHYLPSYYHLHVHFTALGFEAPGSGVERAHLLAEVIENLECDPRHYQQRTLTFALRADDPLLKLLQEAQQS

Mus musculus [9] = test: Modulation of human SMN2 mRNA level in Spinal muscular atrophy mouse brain tissue at 10 mg/kg, po measured after 4 hrs; format: functional
Mus musculus [10] = test: Modulation of human SMN2 protein level in Spinal muscular atrophy mouse model assessed as increase in protein level of muscle tissue at 10 mg/kg, ip
[11] = Toxicity in Spinal muscular atrophy mouse assessed as survival rate at 1 to 3 mg/kg, po administered daily for 65 days; format: organism-based; settings: in vivo, 1560 h, dose 1-3 mg/kg, time 65 day
[12] = Toxicity in Spinal muscular atrophy mouse assessed as survival rate at 0.3 mg/kg, ip administered daily for 40 days; format: organism-based; settings: in vivo, 960 h, time 40 day
Mus musculus [13] = test: Modulation of human SMN2 protein level in Spinal muscular atrophy mouse model assessed as increase in protein level of brain tissue at 10 mg/kg, ip
Mus musculus [14] = test: Modulation of human SMN2 mRNA level in Spinal muscular atrophy mouse muscle tissue at 10 mg/kg, po measured after 4 hrs; format: functional
[15] = Brain to plasma ratio in Spinal muscular atrophy mouse at 3 mg/kg administered subcutaneously for 42 days; format: ADME, organism-based; settings: route sc, time 42 day, read-out: BPR
[16] = Brain to plasma ratio in Spinal muscular atrophy mouse at 3 mg/kg administered subcutaneously for 7 days; format: ADME, organism-based; settings: route sc, time 7 day, read-out: BPR
[17] = Toxicity in Spinal muscular atrophy mouse assessed as survival rate (reference value: 15 %); settings: in vivo
[18] = Half life in human serum measured upto 30 min by HPLC analysis
[19] = Toxicity in Spinal muscular atrophy mouse assessed as survival rate after 5 days; settings: in vivo, 120 h, time 5 day
[20] = Acute toxicity in Spinal muscular atrophy mouse assessed as survival rate; settings: in vivo
[21] = Toxicity in Spinal Muscular atrophy mouse assessed as increase in survival rate; settings: in vivo

- EC50 [1]: 3.4 µM
Structure (SMILES): C#Cc1cnc2nc(O)n(C(CC)CC)c2n1

- half-life [2]: 5 min
- solubility [3]: 6 µM (≈ 1.7 µg/mL)
Structure (SMILES): CC(C)c1cc(C(=O)Nc2ccc(F)c(Cl)c2)no1

- half-life [2]: 5 min
- solubility [3]: 59 µM (≈ 13.6 µg/mL)
Structure (SMILES): CC(C)c1cc(C(=O)Nc2ccccc2)no1

Structure (SMILES): Nc1nc(N)c2c(OCC3CCN(Cc4c(Cl)cccc4Cl)CC3)cccc2n1
- Activity [4]: 27%
- AUC(0-t) [5]: 157 ng·h/mL
- AUC(0-t) [6]: 6760 ng·h/mL
- Activity [7]: 26%

- half-life [2]: 40 min
- solubility [3]: 4 µM (≈ 1.64 µg/mL)
- EC50 at 24 h [8]: 8.3 µM
Structure (SMILES): COc1cc2c(c(OC)c1OC)C(c1cc(Br)ccc1F)CC(=O)N2 (stereo not drawn)

- half-life [2]: > 120 min
- solubility [3]: 77 µM (≈ 17.8 µg/mL)
Structure (SMILES): CC(C)c1cc(C(=O)Nc2ccccn2)no1

- IC50 (m7GpppX diphosphatase): 0.036 µM
Structure (SMILES): Nc1nc(N)c2c(OCC3CCN(C(=O)c4cccc([125I])c4)CC3)cccc2n1

Structure (SMILES): CCN1CCC(c2cc(C)c3nc(-c4cc5c(C)nc(C)cn5n4)cc(=O)n3c2)CC1
- Activity (Mus musculus [9]): 90%
- Activity (Mus musculus [10]): 90%
- Activity [11]: 90%
- Activity [12]: 50%
- Activity (Mus musculus [13]): 150%
- Activity (Mus musculus [14]): 50%

Structure (SMILES): CC(C)CCC[C@@H](C)[C@H]1CC[C@H]2[C@@H]3CCC4=CC(=NO)CC[C@]4(C)[C@H]3CC[C@]12C [OLESOXIME]
- Kp at 1008 h [15]: 0.51
- Kp at 168 h [16]: 0.35
- Activity [17]: 45%

- half-life at 0.5 h [18]: 6 min
Structure (SMILES): CCCC(=O)[O-].[Na+] [SODIUM BUTYRATE]

Structure (SMILES): CC(/C=C/C(=O)NO)=C\[C@@H](C)C(=O)c1ccc(N(C)C)cc1 [TRICHOSTATIN]
- Activity [19]: 19%
- Activity [20]: 40%

Structure (SMILES): O=C(CCCCCCC(=O)Nc1ccccc1)NO [VORINOSTAT]
- Activity [21]: 30%

Reference: ChEMBL document CHEMBL5252529, “Small Molecules in Development for the Treatment of Spinal Muscular Atrophy” (J Med Chem, 2016)
